Source: patent publication US9126948B2, “Pyrimidine-4,6-diamine derivatives as PI3K inhibitors” (Incyte Holdings Corporation, priority 2011, dated 2015)
Structures can show the parent of a compound that is named as a salt.

What was measured:
[1] = test system: Pfeiffer cell line (diffuse large B cell lymphoma); assay: Pfeiffer Cell Proliferation Assay; type: cell-based; settings: Homo sapiens, [3H]-thymidine incorporation after 3-4 days
Experimental: Pfeiffer cell line (diffuse large B cell lymphoma) was purchased from ATCC (Manassas, Va.) and maintained in the culture medium recommended (RPMI and 10% FBS). To measure the anti-proliferation activity of the compounds, the Pfeiffer cells were plated with the culture medium (2×10^3 cells/well/[…]) into 96-well ultra-low binding plates (Corning, Corning, N.Y.), in the presence or absence of a concentration range of test compounds. After 3-4 days, [^3H]-thymidine (1 μCi/well) (PerkinElmer, Boston, Mass.) in PBS was then added to the cell culture for an additional 12 hours before the incorporated radioactivity was separated by filtration with water through GF/B filters (Packard Bioscience, Meridenj, Conn.) and measured by liquid scintillation counting with a TopCount (Packard Bioscience). Pfeiffer cell proliferation data for certain compounds described herein is provided below in Table 8.

[2] = biological target: PI3Kδ (p110δ/p85α) (Homo sapiens (Human), UniProt O00329); assay: PI3Kδ Scintillation Proximity Assay; type: biochemical; settings: 20 μM PIP2, 20 μM ATP, 4 nM PI3Kδ, 210 min; read-out: PI3Kδ SPA IC50
Source text: [γ-^33P]ATP (10 mCi/mL) was purchased from Perkin-Elmer (Waltham, Mass.). Lipid kinase substrate, D-myo-Phosphatidylinositol 4,5-bisphosphate (PtdIns(4,5)P2)D(+)-sn-1,2-di-O-octanoylglyceryl, 3-O-phospho linked (PIP2), CAS 204858-53-7, was purchased from Echelon Biosciences (Salt Lake City, Utah). PI3Kδ (p110δ/p85α) was purchased from Millipore (Bedford, Mass.). ATP, MgCl2, DTT, EDTA, MOPS and CHAPS were purchased from Sigma-Aldrich (St. Louis, Mo.). Wheat Germ Agglutinin (WGA) YSi SPA Scintillation Beads was purchased from GE healthcare life sciences (Piscataway, N.J.).
The kinase reaction was conducted in polystyrene 384-well matrix white plate from Thermo Fisher Scientific in a final volume of 25 μL. Inhibitors were first diluted serially in DMSO and added to the plate wells before the addition of other reaction components. The final concentration of DMSO in the assay was 0.5%. The PI3K assays were carried out at room temperature in 20 mM MOPS, pH 6.7, 10 mM MgCl2, 5 mM DTT and CHAPS 0.03%. Reactions were initiated by the addition of ATP, the final reaction mixture consisted of 20 μM PIP2, 20 μM ATP, 0.2 μCi [γ-^33P]ATP, 4 nM PI3Kδ. Reactions were incubated for 210 min and terminated by the addition of 40 μL SPA beads suspended in quench buffer: 150 mM potassium phosphate pH 8.0, 20% glycerol. 25 mM EDTA, 400 μM ATP. The final concentration of SPA beads was 1.0 mg/mL. After the plate sealing, plates were shaken overnight at room temperature and centrifuged at 1800 rpm for 10 minutes, the radioactivity of the product was determined by scintillation counting on Topcount (Perkin-Elmer). IC50 determination was performed by fitting the curve of percent control activity versus the log of the inhibitor concentration using the GraphPad Prism 3.0 software.

PI3Kδ (p110δ/p85α), sequence (O00329 whole entry, species assumed): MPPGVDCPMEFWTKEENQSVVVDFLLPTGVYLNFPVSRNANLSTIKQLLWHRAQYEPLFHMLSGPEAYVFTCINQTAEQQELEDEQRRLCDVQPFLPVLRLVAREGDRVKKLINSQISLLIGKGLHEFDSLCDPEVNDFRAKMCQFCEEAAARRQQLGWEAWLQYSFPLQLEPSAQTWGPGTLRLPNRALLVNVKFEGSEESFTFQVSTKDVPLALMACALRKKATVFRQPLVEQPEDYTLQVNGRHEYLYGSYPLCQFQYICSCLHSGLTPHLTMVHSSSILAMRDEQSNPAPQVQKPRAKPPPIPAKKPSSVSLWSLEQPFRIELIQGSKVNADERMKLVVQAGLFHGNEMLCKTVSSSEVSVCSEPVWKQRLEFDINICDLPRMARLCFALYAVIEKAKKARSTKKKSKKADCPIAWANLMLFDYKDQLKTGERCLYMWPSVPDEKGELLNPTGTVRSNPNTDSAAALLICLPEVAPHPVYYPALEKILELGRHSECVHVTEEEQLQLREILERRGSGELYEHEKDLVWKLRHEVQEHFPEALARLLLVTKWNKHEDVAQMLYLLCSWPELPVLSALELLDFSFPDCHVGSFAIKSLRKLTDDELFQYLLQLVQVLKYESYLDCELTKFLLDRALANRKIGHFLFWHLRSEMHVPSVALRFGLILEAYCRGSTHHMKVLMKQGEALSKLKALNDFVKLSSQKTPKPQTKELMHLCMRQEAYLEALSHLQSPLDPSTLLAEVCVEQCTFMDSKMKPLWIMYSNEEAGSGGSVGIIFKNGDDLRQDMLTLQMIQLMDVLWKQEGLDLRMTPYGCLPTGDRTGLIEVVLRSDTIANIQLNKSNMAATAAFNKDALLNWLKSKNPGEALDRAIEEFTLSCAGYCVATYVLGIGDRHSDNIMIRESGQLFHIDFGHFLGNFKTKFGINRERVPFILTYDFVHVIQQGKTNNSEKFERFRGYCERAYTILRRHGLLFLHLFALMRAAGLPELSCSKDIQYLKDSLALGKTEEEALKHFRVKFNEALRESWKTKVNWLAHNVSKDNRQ
PI3Kδ (p110δ/p85α), sequence (P27986 whole entry partner, species assumed): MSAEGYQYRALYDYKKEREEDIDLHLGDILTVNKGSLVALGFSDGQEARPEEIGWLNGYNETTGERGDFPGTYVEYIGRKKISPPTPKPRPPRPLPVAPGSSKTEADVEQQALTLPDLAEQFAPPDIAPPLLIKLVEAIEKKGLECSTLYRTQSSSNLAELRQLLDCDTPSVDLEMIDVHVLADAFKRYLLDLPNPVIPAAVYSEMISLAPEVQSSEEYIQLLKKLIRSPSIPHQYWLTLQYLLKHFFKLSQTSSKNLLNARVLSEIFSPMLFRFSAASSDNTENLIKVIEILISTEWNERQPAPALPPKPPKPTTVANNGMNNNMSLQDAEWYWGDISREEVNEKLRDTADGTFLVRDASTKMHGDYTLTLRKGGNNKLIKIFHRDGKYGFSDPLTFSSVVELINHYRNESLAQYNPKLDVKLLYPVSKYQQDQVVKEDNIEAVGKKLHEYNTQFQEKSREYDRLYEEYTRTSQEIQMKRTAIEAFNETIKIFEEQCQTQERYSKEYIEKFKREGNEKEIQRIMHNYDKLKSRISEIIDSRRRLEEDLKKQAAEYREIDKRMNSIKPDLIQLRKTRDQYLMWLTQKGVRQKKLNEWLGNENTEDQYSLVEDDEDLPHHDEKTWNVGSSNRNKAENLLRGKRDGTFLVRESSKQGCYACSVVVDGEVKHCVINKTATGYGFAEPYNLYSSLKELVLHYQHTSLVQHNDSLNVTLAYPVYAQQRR

Row | Structure (SMILES) | IC50 [1] [nM] | IC50 [2] [nM]
1 | COc1c(C(C)Nc2ncnc(N)c2C#N)cc(Cl)c(C)c1-c1cncc(S(C)(=O)=O)c1 (stereo not shown) [Example 1, 4-Amino-6-[(1-{5-chloro-2-methoxy-4-methyl-3-[5-(methylsulfonyl)pyridin-3-yl]phenyl}ethyl)amino]pyrimidine-5-carbonitrile trifluoroacetic acid salt] | < 20 | 
2 | COc1c(C(C)Nc2ncnc(N)c2C#N)cc(Cl)c(C)c1-c1cncc(C#N)c1 (stereo not shown) [Example 2, 4-amino-6-({1-[5-chloro-3-(5-cyano-pyridin-3-yl)-2-methoxy-4-methylphenyl]ethyl}amino)-pyrimidine-5-carbonitrile] | < 20 | < 20
3 | COc1c(C(C)Nc2ncnc(N)c2C#N)cc(Cl)c(C)c1-c1cnc(N)nc1 (stereo not shown) [Example 3, 4-amino-6-({1-[3-(2-aminopyrimidin-5-yl)-5-chloro-2-methoxy-4-methyl-phenyl]ethyl}-amino)pyrimidine-5-carbonitrile] | < 20 | < 20
4 | COc1c(C(C)Nc2ncnc(N)c2C#N)cc(Cl)c(C)c1-c1ccc(S(C)(=O)=O)cc1 (stereo not shown) [Example 4, 4-amino-6-({1-[5-chloro-2-methoxy-6-methyl-4′-(methyl-sulfonyl)biphenyl-3-yl]ethyl}amino) pyrimidine-5-carbonitrile] | < 20 | < 20
5 | COc1c(C(C)Nc2ncnc(N)c2C#N)cc(Cl)c(C)c1-c1cncc(C(=O)N2CCOCC2)c1 (stereo not shown) [Example 5, 4-amino-6-[(1-{5-chloro-2-methoxy-4-methyl-3-[5-(morpholin-4-ylcarbonyl)pyridin-3-yl]phenyl}ethyl)-amino]pyrimidine-5-carbonitrile] | < 20 | < 20
6 | COc1c(C(C)Nc2ncnc(N)c2C#N)cc(Cl)c(F)c1-c1cncc(C#N)c1 (stereo not shown) [Example 6, 4-Amino-6-({1-[5-chloro-3-(5-cyanopyridin-3-yl)-4-fluoro-2-methoxyphenyl]ethyl}-amino)pyrimidine-5-carbonitrile] | < 20 | < 20
7 | COc1c(C(C)Nc2ncnc(N)c2C#N)cc(Cl)c(F)c1-c1cncc(F)c1 (stereo not shown) [Example 7, 4-amino-6-({1-[5-chloro-4-fluoro-3-(5-fluoropyridin-3-yl)-2-methoxyphenyl]ethyl}-amino) pyrimidine-5-carbonitrile] | < 20 | < 20
8 | COc1c(C(C)Nc2ncnc(N)c2C#N)cc(Cl)c(F)c1-c1cncc(S(C)(=O)=O)c1 (stereo not shown) [Example 8, 4-amino-6-[(1-{5-chloro-4-fluoro-2-methoxy-3-[5-(methyl-sulfonyl)pyridin-3-yl]phenyl}ethyl)amino]-pyrimidine-5-carbonitrile bis(trifluoroacetate)] | < 20 | < 20
9 | COc1c(C(C)Nc2ncnc(N)c2C#N)cc(Cl)c(F)c1-c1ccc(S(C)(=O)=O)cc1 (stereo not shown) [Example 9, 4-amino-6-({1-[5-chloro-6-fluoro-2-methoxy-4′-(methylsulfonyl)biphenyl-3-yl]ethyl}amino) pyrimidine-5-carbonitrile] |  | < 20
10 | COc1c(C(C)Nc2ncnc(N)c2C#N)cc(Cl)c(F)c1-c1cnc(N)nc1 (stereo not shown) [Example 10, 4-amino-6-({1-[3-(2-aminopyrimidin-5-yl)-5-chloro-4-fluoro-2-methoxyphenyl]-ethyl}amino)pyrimidine-5-carbonitrile] | < 20 | < 20
11 | COc1c(C(C)Nc2ncnc(N)c2C#N)cc(Cl)c(Cl)c1-c1cncc(S(C)(=O)=O)c1 (stereo not shown) [Example 11, 4-Amino-6-[(1-{4,5-dichloro-2-methoxy-3-[5-(methylsulfonyl)pyridin-3-yl]phenyl}ethyl)amino]pyrimidine-5-carbonitrile] | < 20 | < 20
12 | COc1c(C(C)Nc2ncnc(N)c2C#N)cc(Cl)c(Cl)c1-c1cncc(F)c1 (stereo not shown) [Example 12, 4-Amino-6-({1-[4,5-dichloro-3-(5-fluoropyridin-3-yl)-2-methoxyphenyl]ethyl}amino) pyrimidine-5-carbonitrile] | < 20 | < 20
13 | COc1c(C(C)Nc2ncnc(N)c2C#N)cc(Cl)c(Cl)c1-c1ccc(S(C)(=O)=O)cc1 (stereo not shown) [Example 13, 4-Amino-6-({1-[5,6-dichloro-2-methoxy-4′-(methylsulfonyl)biphenyl-3-yl]ethyl}amino) pyrimidine-5-carbonitrile] |  | < 20
14 | COc1c(C(C)Nc2ncnc(N)c2C#N)cc(Cl)c(Cl)c1-c1cnc(N)nc1 (stereo not shown) [Example 14, 4-Amino-6-({1-[3-(2-aminopyrimidin-5-yl)-4,5-dichloro-2-methoxy-phenyl]ethyl}amino)pyrimidine-5-carbonitrile] | < 20 | < 20
